Consider three compounds from paper PMC8704315, “Lichen-Derived Compounds and Extracts as Biologically Active Substances with Anticancer and Neuroprotective Properties” (Pharmaceuticals, 2021).

One data set has as its system A-172 cell line. In words: MTT cell viability assay, 48 h, A-172. Format: cell-based, Human. The note with it: for IC50: Homo sapiens, read-out: IC50 A-172. In general terms: Tetrazolium dyes change colour on reduction, which living cells bring about.
Data set [1] addresses T1, COX-2 enzyme (Human recombinant) (Homo sapiens, UniProt P35354).
T1 construct: purchased Cayman 60122
T1 sequence (P35354 18-604): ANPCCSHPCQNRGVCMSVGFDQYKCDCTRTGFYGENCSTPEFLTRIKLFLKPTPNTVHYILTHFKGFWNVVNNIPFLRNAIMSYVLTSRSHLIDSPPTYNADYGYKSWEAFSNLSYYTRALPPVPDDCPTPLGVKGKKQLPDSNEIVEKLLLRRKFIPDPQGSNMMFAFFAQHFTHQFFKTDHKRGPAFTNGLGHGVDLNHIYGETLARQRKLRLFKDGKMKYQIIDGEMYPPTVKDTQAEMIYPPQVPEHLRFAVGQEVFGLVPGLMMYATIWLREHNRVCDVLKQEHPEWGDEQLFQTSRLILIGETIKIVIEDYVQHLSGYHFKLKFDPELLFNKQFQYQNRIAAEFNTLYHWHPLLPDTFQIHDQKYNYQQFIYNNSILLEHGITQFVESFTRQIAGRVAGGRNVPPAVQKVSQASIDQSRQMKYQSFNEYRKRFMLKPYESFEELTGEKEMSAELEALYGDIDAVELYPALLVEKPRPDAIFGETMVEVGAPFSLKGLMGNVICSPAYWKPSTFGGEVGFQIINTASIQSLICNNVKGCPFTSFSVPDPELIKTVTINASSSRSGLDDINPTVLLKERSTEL
In words: COX-2 activity assay (Cayman COX Activity Assay Kit). It counts as biochemical. Conditions: for inhibition at 250 µg/mL: read-out: COX-2 Inhibition (%). As to the method: A volume of 0.01 mL of the studied sample, dissolved in pure DMSO to obtain 5 mg/mL, was mixed with 0.12 mL of Tris buffer (100 mM, pH 8.0), 0.01 mL hemin, shaken and left for 5 min at 25 °C followed by addition of 0.02 mL colorimetric substrate and 0.02 mL arachidonic acid solution. To start the reaction, 0.02 mL of COX-2 solution was added. The increase of absorbance during incubation at room temperature was recorded at 590 nm. Negative (blank) sample (buffer instead of studied sample) and positive sample (COX-2 inhibitor DuP-697) were run simultaneously. Background of studied samples (0.01 mL of sample mixed with 0.19 mL buffer) was also measured and included in the calculations. Each sample was run in at least 4 repeats. Inhibition of the enzyme activity was expressed in % (indicates by how many % the activity has been reduced in relation to the negative or blank sample for which the maximum activity was assumed as 100%, under the conditions used in the method). Also, inhibition of enzyme activity was expressed as acetylsalicylic acid equivalent concentration (mg/mL). For this purpose, acetylsalicylic acid solutions were prepared at 14 concentrations (0.2-10.0 mg/mL) and analyzed similarly to tested samples.

The nature of another data set: CUPRAC assay. The note with it: concentration giving absorbance 0.5; highest 250.0 µg/mL for substances, 312.5 µg/mL for extracts; ± SEM, n = 3.
The target of data set [2] is T2, tryptophan 2,3-dioxygenase (TDO) (Homo sapiens, UniProt P48775).
T2 construct: purchased BPS Bioscience, Inc. (San Diego, CA, USA)
Nature of the data set: Universal IDO1/IDO2/TDO Inhibitor Screening Assay Kit, TDO. It counts as biochemical. Conditions: for inhibition at 100 µg/mL: read-out: Inhibition (%) TDO. The method, then:
This colorimetric assay is based on the measurement of the ability of IDO1, IDO2 and TDO to convert L-tryptophan into N-formylkynurenine (NFK). The experiments were performed according to the manufacturer’s guidelines. The final concentration of the compounds and extracts in the reaction mixture was 100 µg/mL. The amount of NFK was measured spectrophotometrically at 320 nm using an Epoch BioTek microplate reader (BioTek Instruments, Inc., Winooski, VT, USA). The samples were run in triplicate and the results were expressed as mean ± SEM.

A short description of another data set: PAMPA-BBB permeability. Format: in vitro ADME. The text has this:
To evaluate the effective permeability (Pe) of the salazinic acid, evernic acid, (−)-usnic acid as pure compounds and from the extracts (P. sulcata acetone extract, E. prunastri acetone extract, C. uncialis acetone extract, respectively), Parallel Artificial Membrane Permeability Assay (PAMPA) for the Blood-Brain Barrier (BBB) was used (Pion Inc., Billerica, MA, USA). The stock solutions of acetone extracts from C. uncialis, E. prunastri and P. sulcata and from (−)-usnic acid, evernic acid, salazinic acid, were prepared with DMSO (the concentrations of salazinic acid, evernic acid, and (−)-usnic acid reached were 2.5 mg/mL for pure compounds and extracts). Next, the donor solution was prepared (5 µL of stock solution/1000 µL of Prisma buffer, pH = 7.4 (Prisma HT, Pion Inc.). Subsequently, each filter membrane of the acceptor plate wells was coated with 5 μL BBB-1 lipid solution (Pion Inc.), and 180 µL of the donor solution was added to the donor wells. The acceptor well was filled with 200 µL BSB (Brain Sink Buffer, Pion Inc.). The plate was incubated for 1 h or 4 h at 37 °C. After incubation, the donor and acceptor concentrations of examined substances were determined using the HPLC. Effective permeability (Pe) of the compounds was calculated by using the following equation. (4) Pe=−ln(1−CA/Ceq)/S×(1/VD+1/VA)×t where Pe is the effective permeability coefficient (cm/s), VD = donor volume, VA = acceptor volume, Ceq = equilibrium concentration and Ceq=CD×VD+CA×VA/VD+VA , S = membrane area, and t = incubation time (in seconds).
Compounds with Pe (× 10^−6 cm/s) > 1.5 are classified as high permeation predicted, while Pe (× 10^−6 cm/s) < 1.5 are classified as low permeation predicted. Samples were analyzed in triplicate and the average is reported.
For orientation: In PAMPA a lipid-coated filter parts donor from acceptor wells.

Setting [3] is: A 172, 48 h treatment, MTT, ± SEM.
[4] abbreviates: sample 5 mg/mL stock, 250.0 µg/mL in assay, ± SEM.
Setting [5] is: pH 7.4, Pe (effective permeability, PAMPA-BBB).

“And” between values parts separate entries of the source, which are not always exact repeats. Identical values can stand only once. Like-named read-outs stand apart in the source and are kept apart here.

T2 sequence (P48775 whole entry, species assumed): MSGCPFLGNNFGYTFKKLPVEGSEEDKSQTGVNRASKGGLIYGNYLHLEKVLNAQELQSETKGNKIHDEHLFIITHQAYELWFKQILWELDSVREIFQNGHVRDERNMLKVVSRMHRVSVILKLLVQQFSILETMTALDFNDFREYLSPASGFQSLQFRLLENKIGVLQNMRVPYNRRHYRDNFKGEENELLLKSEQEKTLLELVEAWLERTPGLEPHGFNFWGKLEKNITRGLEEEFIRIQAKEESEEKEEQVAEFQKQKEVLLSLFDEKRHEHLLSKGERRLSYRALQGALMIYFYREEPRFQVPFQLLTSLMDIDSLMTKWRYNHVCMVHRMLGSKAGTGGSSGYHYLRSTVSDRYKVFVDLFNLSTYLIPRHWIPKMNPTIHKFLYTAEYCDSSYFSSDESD

In the case of `Cc1cc(O)c(C=O)c2c1C(=O)Oc1c(CO)c(O)c3c(c1O2)C(O)OC3=O` (centres unmarked) [Salazinic acid, salazinic acid], the IC50 (usually the concentration that gives 50% inhibition) with A-172 cell line (setting [3]) was > 38.8 µg/mL and > 100 µM. In addition, in data set [1] (setting [4]), the “Equivalent Concentration of Acetylsalicylic Acid” value (“Equivalent Concentration” for short) is 12.9 ± 0.1 mg/mL and the inhibition (as a rule, the relative decrease from the control value, in per cent) at 250 µg/mL was determined as 60.3 ± 3%. The “CUPRAC IC0.5” value in “CUPRAC assay” was >250.0 µg/mL. Moreover, in data set [2] (100 µg/mL), the “Inhibition (%) TDO” value was “did not exhibit any inhibition effect” and the inhibition at 100 µg/mL is < 10%. For the same compound, in “PAMPA-BBB permeability” (setting [5]), the Papp at 12.5 µg/mL is < 0.5 ×10⁻⁶ cm/s.

Take `CC(=O)C1=C(O)C=C2Oc3c(C(C)=O)c(O)c(C)c(O)c3C2(C)C1=O` (single isomer, unassigned; (-)) [(−)-Usnic acid, (−)-usnic acid]: in the data set with A-172 cell line (A 172, 48 h), the half-inhibitory concentration (IC50) is 31.5 µg/mL and 91.4 µM. Further, the inhibition at 250 µg/mL in data set [1] stood at 59.3 ± 3.5%. Further, the “Equivalent Concentration” value in data set [1] (setting [4]) turned out to be 12.9 ± 1.5 mg/mL. For the same compound, the “CUPRAC IC0.5” value in “CUPRAC assay” was >250.0 µg/mL. For the same compound, the inhibition at 100 µg/mL in data set [2] was < 10%. Also, the Papp at 1 h, 12.5 µg/mL came to 140 ± 7.3 ×10⁻⁶ cm/s in “PAMPA-BBB permeability” (pH 7.4, compound permeated from the acetone extract, 1 h, 37 °C, pH 7.4, ± SEM, n = 3, read-out: Pe × 10^−6 (cm/s) t = 1 h) and 92.8 ± 6.3 ×10⁻⁶ cm/s in the data set “PAMPA-BBB permeability” (pH 7.4, pure compound (PC), 1 h, 37 °C, pH 7.4, ± SEM, n = 3, read-out: Pe × 10^−6 (cm/s) t = 1 h). Moreover, the Papp at 12.5 µg/mL in “PAMPA-BBB permeability” (pH 7.4, from the extract or as a pure compound, bound stated, read-out: Pe (effective permeability, PAMPA-BBB)) was > 1.5 ×10⁻⁶ cm/s.

With `COc1cc(C)c(C(=O)Oc2cc(C)c(C(=O)O)c(O)c2)c(O)c1` [Evernic acid, evernic acid], in the data set on A-172 cell line (10–100 µM, compared to vehicle-treated control), the “cell viability A-172” value is listed as ~ 80%. The half-maximal inhibitory concentration (IC50) with A-172 cell line (setting [3]) was > 33.2 µg/mL and > 100 µM. Further, in data set [1] (setting [4]), the “Equivalent Concentration” value amounted to 10.9 ± 1.8 mg/mL and the inhibition at 250 µg/mL is 50.7 ± 2.1%. For the same compound, the “CUPRAC IC0.5” value in “CUPRAC assay” is >250.0 µg/mL. In addition, the inhibition at 100 µg/mL in data set [2] (100 µg/mL) is < 10%. Moreover, in the data set “PAMPA-BBB permeability” (1 h, 12.5 µg/mL, pH 7.4), the “Pe × 10^−6 (cm/s) t = 1 h” value is recorded as 5.0 ± 0.7 × 10^−6 cm/s. The “Pe × 10^−6 (cm/s) t = 4 h” value in the data set “PAMPA-BBB permeability” (4 h, 12.5 µg/mL, pH 7.4) is on record as 7.2 ± 0.4 × 10^−6 cm/s. In addition, in the data set “PAMPA-BBB permeability” (setting [5]), the Papp at 12.5 µg/mL was > 1.5 ×10⁻⁶ cm/s. Moreover, the Papp at 1 h, 12.5 µg/mL in “PAMPA-BBB permeability” (pH 7.4, Pe × 10^−6 (cm/s) t = 1 h) was found to be 5.2 ± 0.8 ×10⁻⁶ cm/s. This compound also had a Papp at 4 h, 12.5 µg/mL in “PAMPA-BBB permeability” (pH 7.4, Pe × 10^−6 (cm/s) t = 4 h) of 8.6 ± 0.4 ×10⁻⁶ cm/s.
